Test results: ChEMBL document CHEMBL5518207, “Structure Guided Discovery of Novel Pan Metallo-β-Lactamase Inhibitors with Improved Gram-Negative Bacterial Cell Penetration” (J Med Chem, 2024)
pIC50: −log10 of the molar value.

Experiments:
[1] = target: Voltage-gated potassium channel, IKs; KCNQ1(Kv7.1)/KCNE1(MinK) (Homo sapiens, UniProt P15382+P51787); assay: Inhibition of KCNQ1/KCNE1 (unknown origin); type: protein-complex assay
Pseudomonas aeruginosa [2] = assay: Potentiation of imipenem induced antibacterial activity against isogenic efflux deleted mutant Pseudomonas aeruginosa MB9799 harbouring IMP incubated for 18 to 22 hrs imipenem and beta lactamase inhibitor by spectrophotometer based analysis; type: functional; details: time 18-22 hrs
[3] = AUC in rat at 1 mg/kg, iv measured after 24 hrs by HPLC-MS analysis; type: ADME, organism-based; details: in vivo
[4] = AUC in Beagle dog at 1 mg/kg, iv measured after 24 hrs by HPLC-MS analysis; type: ADME, organism-based, Canis lupus familiaris; details: in vivo
[5] = Volume of distribution at steady state in Beagle dog at 1 mg/kg, iv measured after 24 hrs by HPLC-MS analysis; type: ADME, organism-based, Canis lupus familiaris; details: in vivo, read-out: Vdss
Cytochrome P450 2C9 = Cytochrome P450 2C9 (Homo sapiens, UniProt P11712); assay: Inhibition of CYP2C9 (unknown origin); type: ADME
Cytochrome P450 2C9, sequence (P11712 whole entry): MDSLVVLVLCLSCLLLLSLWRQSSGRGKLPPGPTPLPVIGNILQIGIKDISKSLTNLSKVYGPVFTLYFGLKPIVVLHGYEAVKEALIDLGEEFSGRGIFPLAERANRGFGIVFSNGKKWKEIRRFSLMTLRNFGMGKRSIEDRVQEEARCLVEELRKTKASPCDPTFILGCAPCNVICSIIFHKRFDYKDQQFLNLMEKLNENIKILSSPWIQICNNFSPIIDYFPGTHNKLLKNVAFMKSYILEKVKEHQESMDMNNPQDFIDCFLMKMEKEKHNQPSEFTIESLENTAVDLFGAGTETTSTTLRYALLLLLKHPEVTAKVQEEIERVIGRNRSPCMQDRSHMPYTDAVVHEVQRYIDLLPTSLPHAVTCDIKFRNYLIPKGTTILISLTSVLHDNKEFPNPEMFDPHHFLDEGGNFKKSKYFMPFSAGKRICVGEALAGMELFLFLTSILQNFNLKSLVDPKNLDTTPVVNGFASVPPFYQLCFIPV

Cytochrome P450 2D6 = Cytochrome P450 2D6 (Homo sapiens, UniProt P10635); assay: Inhibition of CYP2D6 (unknown origin); type: ADME
[6] = Cmax in Beagle dog at 1 mg/kg, iv measured after 24 hrs by HPLC-MS analysis; type: ADME, organism-based, Canis lupus familiaris; details: in vivo
[7] = target: Voltage-gated inwardly rectifying potassium channel KCNH2 (Homo sapiens, UniProt Q12809); assay: Inhibition of human ERG; type: toxicity
Voltage-gated inwardly rectifying potassium channel KCNH2, sequence (Q12809 whole entry): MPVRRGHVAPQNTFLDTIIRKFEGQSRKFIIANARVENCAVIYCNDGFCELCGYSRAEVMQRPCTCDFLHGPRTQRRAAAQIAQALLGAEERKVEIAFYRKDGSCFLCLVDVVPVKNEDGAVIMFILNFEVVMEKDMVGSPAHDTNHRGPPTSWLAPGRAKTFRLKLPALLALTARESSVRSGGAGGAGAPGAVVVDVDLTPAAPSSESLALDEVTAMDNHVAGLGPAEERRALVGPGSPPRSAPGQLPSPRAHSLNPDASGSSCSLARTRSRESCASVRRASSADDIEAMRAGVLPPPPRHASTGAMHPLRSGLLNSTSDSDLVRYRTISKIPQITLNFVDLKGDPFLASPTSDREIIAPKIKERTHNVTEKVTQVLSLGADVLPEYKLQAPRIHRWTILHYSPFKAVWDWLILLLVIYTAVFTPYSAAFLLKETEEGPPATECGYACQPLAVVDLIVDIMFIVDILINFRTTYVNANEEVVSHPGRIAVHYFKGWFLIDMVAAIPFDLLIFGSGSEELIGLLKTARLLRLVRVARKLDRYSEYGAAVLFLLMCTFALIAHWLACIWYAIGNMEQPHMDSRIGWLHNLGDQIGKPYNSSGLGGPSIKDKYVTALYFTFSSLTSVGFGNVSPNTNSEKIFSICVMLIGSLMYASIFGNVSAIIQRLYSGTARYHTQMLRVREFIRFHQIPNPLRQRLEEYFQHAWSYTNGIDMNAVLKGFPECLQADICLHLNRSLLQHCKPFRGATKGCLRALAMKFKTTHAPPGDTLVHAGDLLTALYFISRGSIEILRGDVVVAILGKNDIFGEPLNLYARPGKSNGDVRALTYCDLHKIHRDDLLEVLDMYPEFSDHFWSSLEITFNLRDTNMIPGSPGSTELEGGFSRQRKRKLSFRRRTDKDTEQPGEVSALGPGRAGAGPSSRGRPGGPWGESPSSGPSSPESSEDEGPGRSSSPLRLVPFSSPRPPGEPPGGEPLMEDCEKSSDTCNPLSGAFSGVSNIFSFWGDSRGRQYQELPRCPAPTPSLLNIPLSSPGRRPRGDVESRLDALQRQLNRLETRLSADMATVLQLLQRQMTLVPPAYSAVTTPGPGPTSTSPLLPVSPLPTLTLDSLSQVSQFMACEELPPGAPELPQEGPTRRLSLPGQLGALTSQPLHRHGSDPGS

Pseudomonas aeruginosa [8] = assay: Potentiation of imipenem induced antibacterial activity against isogenic efflux wild type Pseudomonas aeruginosa MB9798 harbouring IMP incubated for 18 to 22 hrs imipenem and beta lactamase inhibitor by spectrophotometer based analysis; type: functional; details: time 18-22 hrs
Cytochrome P450 2C8 = target: T1, Cytochrome P450 2C8 (Homo sapiens, UniProt P10632); assay: Inhibition of CYP2C8 (unknown origin); type: ADME
T1 sequence (P10632 whole entry): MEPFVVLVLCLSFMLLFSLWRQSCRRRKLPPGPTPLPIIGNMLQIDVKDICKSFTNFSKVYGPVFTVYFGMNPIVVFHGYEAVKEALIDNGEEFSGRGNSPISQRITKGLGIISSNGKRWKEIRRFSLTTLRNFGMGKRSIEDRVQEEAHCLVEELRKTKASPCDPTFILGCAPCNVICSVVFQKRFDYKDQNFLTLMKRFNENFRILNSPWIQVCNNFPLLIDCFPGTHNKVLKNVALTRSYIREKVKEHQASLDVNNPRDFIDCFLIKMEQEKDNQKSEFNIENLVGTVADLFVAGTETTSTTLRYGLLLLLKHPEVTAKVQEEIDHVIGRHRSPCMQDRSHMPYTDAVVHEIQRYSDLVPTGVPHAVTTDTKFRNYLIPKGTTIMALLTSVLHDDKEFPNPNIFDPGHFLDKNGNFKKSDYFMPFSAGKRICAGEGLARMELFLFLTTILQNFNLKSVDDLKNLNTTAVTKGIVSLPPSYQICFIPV

[9] = Toxicity in Beagle dog assessed as severe adverse effect at 1 mg/kg, iv measured after 24 hrs by HPLC-MS analysis; type: organism-based, Canis lupus familiaris; details: in vivo
Pseudomonas aeruginosa [10] = assay: Efflux ratio of MITC95 for potentiation of imipenem induced antibacterial activity against isogenic efflux wild type Pseudomonas aeruginosa MB9798 harbouring IMP to MITC95 for potentiation of imipenem induced antibacterial activity against isogenic efflux deleted mutant Pseudomonas aeruginosa MB9799 harbouring IMP; type: functional
Serratia marcescens = assay: Potentiation of imipenem induced antibacterial activity against Serratia marcescens CL5741 harbouring IMP-1 incubated for 18 to 22 hrs imipenem by spectrophotometer based analysis; type: functional; details: time 18-22 hrs
[11] = Cmax in rat at 1 mg/kg, iv measured after 24 hrs by HPLC-MS analysis; type: ADME, organism-based; details: in vivo
[12] = Clearance in rat at 1 mg/kg, iv measured after 24 hrs by HPLC-MS analysis; type: ADME, organism-based; details: in vivo
[13] = Inhibition of GST tagged VIM-2 (unknown origin) expressed in Escherichia coli BL21 Star (DE3) competent cells using CCF2-FA as substrate incubated for 2 hrs by fluorescence based analysis
[14] = MRT in rat at 1 mg/kg, iv measured after 24 hrs by HPLC-MS analysis; type: ADME, organism-based; details: in vivo
[15] = Inhibition of GST tagged NDM-1 (unknown origin) expressed in Escherichia coli BL21 Star (DE3) competent cells using CCF2-FA as substrate incubated for 2 hrs by fluorescence based analysis
Cytochrome P450 3A4 = Cytochrome P450 3A4 (Homo sapiens, UniProt P08684); assay: Inhibition of CYP3A4 (unknown origin); type: ADME
Escherichia coli = assay: Potentiation of imipenem induced antibacterial activity against Escherichia coli CLB30005 harbouring NDM-1 incubated for 18 to 22 hrs in presence of imipenem by spectrophotometer based analysis; type: functional; details: time 18-22 hrs
[16] = Unbound fraction in Beagle dog plasma at 1 mg/kg, iv measured after 24 hrs by HPLC-MS analysis; type: ADME, organism-based, Canis lupus familiaris
[17] = Inhibition of GST tagged VIM-1 (unknown origin) expressed in Escherichia coli BL21 Star (DE3) competent cells using CCF2-FA as substrate incubated for 2 hrs by fluorescence based analysis
[18] = Volume of distribution at steady state in rat at 1 mg/kg, iv measured after 24 hrs by HPLC-MS analysis; type: ADME, organism-based; details: in vivo, read-out: Vdss
[19] = target: Voltage-dependent L-type calcium channel subunit alpha-1C (Homo sapiens, UniProt Q13936); assay: Inhibition of Cav1.2 channel (unknown origin)
Voltage-dependent L-type calcium channel subunit alpha-1C, sequence (Q13936 whole entry): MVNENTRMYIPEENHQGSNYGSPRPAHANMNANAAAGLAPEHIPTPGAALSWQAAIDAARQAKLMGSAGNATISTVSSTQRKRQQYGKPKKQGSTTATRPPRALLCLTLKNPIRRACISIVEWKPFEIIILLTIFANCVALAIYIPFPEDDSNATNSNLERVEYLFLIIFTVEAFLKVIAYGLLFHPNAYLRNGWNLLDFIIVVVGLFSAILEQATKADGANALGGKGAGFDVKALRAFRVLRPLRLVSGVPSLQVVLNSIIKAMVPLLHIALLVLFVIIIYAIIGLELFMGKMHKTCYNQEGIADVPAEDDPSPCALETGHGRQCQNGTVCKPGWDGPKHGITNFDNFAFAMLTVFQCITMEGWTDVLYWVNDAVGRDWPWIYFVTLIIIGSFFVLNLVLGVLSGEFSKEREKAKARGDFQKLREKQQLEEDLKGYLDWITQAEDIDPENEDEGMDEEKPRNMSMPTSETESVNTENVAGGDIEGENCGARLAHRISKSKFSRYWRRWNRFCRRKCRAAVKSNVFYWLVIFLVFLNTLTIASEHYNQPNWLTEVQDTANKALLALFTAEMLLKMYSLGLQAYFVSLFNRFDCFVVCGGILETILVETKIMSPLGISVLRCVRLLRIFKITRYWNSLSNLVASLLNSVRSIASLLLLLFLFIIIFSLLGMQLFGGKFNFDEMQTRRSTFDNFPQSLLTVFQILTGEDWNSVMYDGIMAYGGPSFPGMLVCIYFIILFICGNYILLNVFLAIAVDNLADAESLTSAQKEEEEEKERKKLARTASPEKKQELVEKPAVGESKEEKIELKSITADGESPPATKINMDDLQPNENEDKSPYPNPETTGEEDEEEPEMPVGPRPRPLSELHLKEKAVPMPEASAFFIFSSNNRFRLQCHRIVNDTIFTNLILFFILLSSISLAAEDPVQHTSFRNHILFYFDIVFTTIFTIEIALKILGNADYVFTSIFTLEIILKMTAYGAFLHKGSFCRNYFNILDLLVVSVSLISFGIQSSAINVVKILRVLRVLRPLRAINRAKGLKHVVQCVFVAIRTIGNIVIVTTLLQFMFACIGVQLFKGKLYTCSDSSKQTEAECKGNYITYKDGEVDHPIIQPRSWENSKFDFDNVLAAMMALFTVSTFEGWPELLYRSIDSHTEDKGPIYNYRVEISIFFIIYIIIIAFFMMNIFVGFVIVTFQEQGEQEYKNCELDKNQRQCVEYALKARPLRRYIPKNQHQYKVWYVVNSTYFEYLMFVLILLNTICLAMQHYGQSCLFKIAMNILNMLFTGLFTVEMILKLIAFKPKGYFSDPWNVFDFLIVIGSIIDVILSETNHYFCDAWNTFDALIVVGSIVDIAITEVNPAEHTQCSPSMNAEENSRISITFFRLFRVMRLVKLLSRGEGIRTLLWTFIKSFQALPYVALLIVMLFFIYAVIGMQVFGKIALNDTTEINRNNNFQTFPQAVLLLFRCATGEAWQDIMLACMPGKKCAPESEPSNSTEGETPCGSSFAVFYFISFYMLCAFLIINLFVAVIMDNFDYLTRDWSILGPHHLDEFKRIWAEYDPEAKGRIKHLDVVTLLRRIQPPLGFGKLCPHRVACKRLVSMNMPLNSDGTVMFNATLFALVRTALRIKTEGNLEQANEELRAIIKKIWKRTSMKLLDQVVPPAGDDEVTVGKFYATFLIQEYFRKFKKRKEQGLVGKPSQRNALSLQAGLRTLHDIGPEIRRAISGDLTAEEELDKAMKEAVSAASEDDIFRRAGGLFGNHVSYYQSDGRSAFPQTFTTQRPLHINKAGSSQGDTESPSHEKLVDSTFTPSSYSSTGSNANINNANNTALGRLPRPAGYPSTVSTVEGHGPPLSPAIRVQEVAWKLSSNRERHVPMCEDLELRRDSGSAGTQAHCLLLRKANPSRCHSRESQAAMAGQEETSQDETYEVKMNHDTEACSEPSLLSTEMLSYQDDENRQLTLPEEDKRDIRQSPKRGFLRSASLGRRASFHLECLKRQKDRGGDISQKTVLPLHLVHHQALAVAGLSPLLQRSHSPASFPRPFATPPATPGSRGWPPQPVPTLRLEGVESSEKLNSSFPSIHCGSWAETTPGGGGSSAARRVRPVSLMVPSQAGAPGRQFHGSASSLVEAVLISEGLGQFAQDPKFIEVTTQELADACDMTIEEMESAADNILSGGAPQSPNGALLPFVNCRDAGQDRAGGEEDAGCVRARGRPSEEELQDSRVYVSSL

[20] = target: Sodium channel protein type 5 subunit alpha (Homo sapiens, UniProt Q14524); assay: Inhibition of NaV 1.5 channel (unknown origin)
[21] = Unbound fraction in rat plasma at 1 mg/kg, iv measured after 24 hrs by HPLC-MS analysis; type: ADME, organism-based
Klebsiella pneumoniae = assay: Potentiation of imipenem induced antibacterial activity against Klebsiella pneumoniae IHMA599644 harbouring VIM-1 incubated for 18 to 22 hrs imipenem by spectrophotometer based analysis; type: functional; details: time 18-22 hrs
[22] = Inhibition of GST tagged IMP-1 (unknown origin) expressed in Escherichia coli BL21 Star (DE3) competent cells using CCF2-FA as substrate incubated for 2 hrs by fluorescence based analysis
[23] = Clearance in Beagle dog at 1 mg/kg, iv measured after 24 hrs by HPLC-MS analysis; type: ADME, organism-based, Canis lupus familiaris; details: in vivo
[24] = MRT in Beagle dog at 1 mg/kg, iv measured after 24 hrs by HPLC-MS analysis; type: ADME, organism-based, Canis lupus familiaris; details: in vivo
[25] = AUC in rat at 5 mg/kg, iv measured after 24 hrs by HPLC-MS analysis; type: ADME, organism-based; details: in vivo
[26] = Toxicity in Beagle dog assessed as decrease in activity at 1 mg/kg, iv measured after 24 hrs by HPLC-MS analysis; type: organism-based, Canis lupus familiaris; details: in vivo
[27] = Clearance in rat at 5 mg/kg, iv measured after 24 hrs by HPLC-MS analysis; type: ADME, organism-based; details: in vivo
[28] = Toxicity in Beagle dog assessed as increase in respiration at 1 mg/kg, iv measured after 24 hrs by HPLC-MS analysis; type: organism-based, Canis lupus familiaris; details: in vivo
[29] = Toxicity in Beagle dog assessed as vocalization at 1 mg/kg, iv measured after 24 hrs by HPLC-MS analysis; type: organism-based, Canis lupus familiaris; details: in vivo
[30] = Toxicity in Beagle dog assessed as increase in histamine level in plasma at 1 mg/kg, iv measured upto 24 hrs by HPLC-MS analysis; type: organism-based, Canis lupus familiaris; details: in vivo
[31] = Volume of distribution at steady state in rat at 5 mg/kg, iv measured after 24 hrs by HPLC-MS analysis; type: ADME, organism-based; details: in vivo, read-out: Vdss
[32] = Unbound fraction in rat plasma at 5 mg/kg, iv measured after 24 hrs by HPLC-MS analysis; type: ADME, organism-based
[33] = Toxicity in Beagle dog assessed as emesis at 1 mg/kg, iv measured after 24 hrs by HPLC-MS analysis; type: organism-based, Canis lupus familiaris; details: in vivo
[34] = Toxicity in Beagle dog assessed as appearance of watery eyes at 1 mg/kg, iv measured after 24 hrs by HPLC-MS analysis; type: organism-based, Canis lupus familiaris; details: in vivo
[35] = Cmax in rat at 5 mg/kg, iv measured after 24 hrs by HPLC-MS analysis; type: ADME, organism-based; details: in vivo
[36] = MRT in rat at 5 mg/kg, iv measured after 24 hrs by HPLC-MS analysis; type: ADME, organism-based; details: in vivo

Voltage-gated potassium channel, IKs; KCNQ1(Kv7.1)/KCNE1(MinK), sequence (P51787 whole entry): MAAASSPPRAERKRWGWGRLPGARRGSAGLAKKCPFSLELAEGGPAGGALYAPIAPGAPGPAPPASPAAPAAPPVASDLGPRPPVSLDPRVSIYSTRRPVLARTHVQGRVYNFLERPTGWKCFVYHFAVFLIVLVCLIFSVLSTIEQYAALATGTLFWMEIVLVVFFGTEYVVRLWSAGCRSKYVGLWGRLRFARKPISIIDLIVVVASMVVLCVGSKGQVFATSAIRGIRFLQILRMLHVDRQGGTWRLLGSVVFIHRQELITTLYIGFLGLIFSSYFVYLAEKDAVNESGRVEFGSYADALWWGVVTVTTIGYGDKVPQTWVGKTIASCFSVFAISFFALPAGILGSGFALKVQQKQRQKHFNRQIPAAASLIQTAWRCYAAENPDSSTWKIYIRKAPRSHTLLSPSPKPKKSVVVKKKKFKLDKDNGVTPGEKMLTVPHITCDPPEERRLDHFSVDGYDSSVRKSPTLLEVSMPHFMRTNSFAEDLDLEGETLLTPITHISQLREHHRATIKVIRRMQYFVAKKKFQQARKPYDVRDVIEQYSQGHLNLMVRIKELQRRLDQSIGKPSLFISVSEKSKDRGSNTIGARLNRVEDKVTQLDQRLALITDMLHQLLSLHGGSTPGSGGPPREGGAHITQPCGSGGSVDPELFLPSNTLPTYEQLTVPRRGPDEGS

Nc1nc2cccc(-c3ccc(C(F)(F)F)c(S(N)(=O)=O)c3-c3nnn[nH]3)c2[nH]1
pIC50 [1]: < 4.52
MITC95 (Pseudomonas aeruginosa [2]): 0.78 µM
AUC at 24 h [3]: 4.1 µM·h
AUC at 24 h [4]: 4.34 µM·h
Vd [5]: 0.94 L/kg
pIC50 (Cytochrome P450 2C9): < 4.30
pIC50 (Cytochrome P450 2D6): < 4.30
Cmax [6]: 9 µM
pIC50 [7]: < 4.52
MITC95 (Pseudomonas aeruginosa [8]): 25 µM
pIC50 (Cytochrome P450 2C8): < 4.30
Activity [9]: Non-Toxic
Ratio (Pseudomonas aeruginosa [10]): 32
MITC95 (Serratia marcescens): 0.8 µM
Cmax [11]: 10.8 µM
clearance [12]: 9.6 mL/min/kg
pIC50 [13]: 8.89
MRT [14]: 0.66 h
pIC50 [15]: 10.00
pIC50 (Cytochrome P450 3A4): < 4.30
MITC95 (Escherichia coli): 0.4 µM
fraction unbound at 24 h [16]: 0.26
pIC50 [17]: 9.52
Vd [18]: 0.38 L/kg
pIC50 [19]: < 4.52
pIC50 [20]: < 4.52
fraction unbound at 24 h [21]: 0.065
MITC95 (Klebsiella pneumoniae): 1.6 µM
pIC50 [22]: 8.42
clearance [23]: 9.1 mL/min/kg
MRT [24]: 1.72 h

NS(=O)(=O)c1c(C[C@H]2CC[C@H](N)CC2)ccc(-c2ccc(C3CNC3)cc2)c1-c1nn[nH]n1
MITC95 (Pseudomonas aeruginosa [2]): 1.6 µM
AUC at 24 h [25]: 83.7 µM·h
Activity [26]: Toxic
clearance [27]: 2.2 mL/min/kg
Cmax [6]: 9.3 µM
Activity [28]: Toxic
Activity [29]: Toxic
MITC95 (Pseudomonas aeruginosa [8]): 18 µM
Ratio (Pseudomonas aeruginosa [10]): 11
MITC95 (Serratia marcescens): 3.1 µM
pIC50 [15]: 8.40
MITC95 (Escherichia coli): 0.8 µM
Activity [30]: Toxic
pIC50 [17]: 9.00
Vd [31]: 0.39 L/kg
fraction unbound at 24 h [32]: 0.42
Activity [33]: Toxic
MITC95 (Klebsiella pneumoniae): 1.6 µM
Activity [34]: Toxic
pIC50 [22]: 7.37
Cmax [35]: 84.3 µM
MRT [36]: 3.13 h
